Laboratory results from patent US20070203066A1, “Compositions and methods for inhibiting cellular proliferation” (priority 2005, published 2007).
Non-standard residues stand in square brackets, D forms with d. Primed or numbered codes have the meaning given here. No end group written: not given here. Ida = iminodiacetic acid linker, its two carboxyls bind the Lys side-chain amines of two peptides, giving a homodimer; Ida(3) = iminodiacetic acid linker, Lys side-chain amines bound to its two carboxyl groups; Ida(4) = iminodiacetic acid linker (dimerization linker bound to lysine side chain); Ida″ = iminodiacetic acid linker bound to the Lys side-chain amine, forming a dimer; Ahx = NCCCCCC(=O)O

Each compound was assayed on HUVECs. Conditions: 48 h.
Format: cell-based
How it was run: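 HUVECs seeded at 5,000 cells/well in EBM with 2% FCS, adhered ≥12 hours, then stimulated with bFGF 10 ng/ml or VEGF 5 ng/ml plus varying peptide concentrations. After 48 hours at 37 ° C, 5% CO2, proliferation inhibition read by BrdU incorporation.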
Compound `CC[C@H](C)[C@H](NC(=O)[C@H](Cc1c[nH]cn1)NC(=O)[C@@H](NC(=O)[C@H](Cc1c[nH]cn1)NC(=O)[C@H](CCC(N)=O)NC(=O)[C@H](CCCNC(=N)N)NC(=O)[C@H](CCCNC(=N)N)NC(=O)[C@H](CCCNC(=N)N)NC(=O)[C@H](CCCNC(=N)N)NC(=O)[C@H](Cc1c[nH]cn1)NC(C)=O)C(C)C)C(=O)N[C@@H](Cc1ccc(O)cc1)C(=O)N[C@@H](Cc1ccccc1)C(=O)N[C@@H](CCCCNC(=O)CN(CC(=O)NCCCC[C@H](NC(=O)[C@H](Cc1ccccc1)NC(=O)[C@H](Cc1ccc(O)cc1)NC(=O)[C@@H](NC(=O)[C@H](Cc1c[nH]cn1)NC(=O)[C@@H](NC(=O)[C@H](Cc1c[nH]cn1)NC(=O)[C@H](CCC(N)=O)NC(=O)[C@H](CCCNC(=N)N)NC(=O)[C@H](CCCNC(=N)N)NC(=O)[C@H](CCCNC(=N)N)NC(=O)[C@H](CCCNC(=N)N)NC(=O)[C@H](Cc1c[nH]cn1)NC(C)=O)C(C)C)[C@@H](C)CC)C(N)=O)C(=O)CCNC(=O)OC(C)(C)C)C(N)=O` [Peptide 322] has an IC50 of less than 10 µM.

Same assay, conditions: HUVEC proliferation, bFGF at 10 ng/ml or VEGF at 5 ng/ml, 48 hours, BrdU incorporation; read-out: IC50 on HUVECs
For “345 (Ac-ARRRRQRVAIYWK-NH2; not fully specified (residue 13); also: homodimer of residues 1-13 via Ida linker on Lys13 side chain) [compound 345]”, the IC50 was less than 10 µM. “391 (Ac-ARRRRQAVNIYFK; not fully specified (residue 13, C-terminus); also: homodimer of residues 1-13 via Ida linker at Lys13 side chain) [compound 391]” gave an IC50 of less than 10 µM. For KTKRKRKKQRVKIAYEEAAVQNM [compound 47], the IC50 was greater than 30 µM. For “410 (Ac-SRRRRQAVAIYFK; not fully specified (residue 13, C-terminus); also: homodimer via Ida linker on Lys side chains, linker at 13 via Ida, other end not in the chain) [compound 410]”, the IC50 was less than 10 µM. With “415 (Ac-ARRRRQAVRIKFV; not fully specified (residue 11, bridges); also: homodimer of residues 1-13 via Ida linker on K11 side chain) [compound 415]” the IC50 was less than 10 µM. Work on “434 (Ac-RRRRFQAVAIYFK(Ida(4)); not fully specified (C-terminus); also: homodimer via Ida linker at K13) [compound 434]” yielded an IC50 of less than 10 µM. With “193 (Ac-ARRARQRVRIIF; also: dimer: C-terminal Phe bound to an amino group of a Lys linker, 2 chains per Lys) [compound 193]” the IC50 was less than 10 µM. Work on “204 (Ac-RRARRQAVRIIF; also: dimer: C-terminal Phe bound to an amino group of a Lys linker, 2 chains per Lys) [compound 204]” yielded an IC50 of less than 10 µM. “456 (Ac-KRRRRQAVAIVF; not fully specified (residue 1); also: homodimer via Ida linker on K1 side chain) [compound 456]” was tested, and the IC50 was greater than 30 µM. Compound “212 (Ac-AARRRQRVAIIF; also: dimer: Phe C-termini joined via Lys linker) [compound 212]” has an IC50 greater than 30 µM. For “230 (XRHRRQRVRIIF; Xaa = Acylated Histidine; Dimeric peptide wherein the C terminus of Phe in position 12 of one peptide chain is covalently bound to one of the amino groups of a Lysine linker and Phe of the remaining peptide chain is covalently bound to the other amino group of the Lysine linker.) [compound 230]”, the IC50 was less than 10 µM. Compound “505 (Ac-PRRYRQAVAIYFK; not fully specified (residue 13, C-terminus); also: homodimer via Ida linker on Lys13 side chain) [compound 505]” has an IC50 of less than 10 µM. Work on KTKRKRKKQRVKIAYEE [compound 18] yielded an IC50 of 10 to 30 µM. Work on KRKRKKQRVKIAYEEIF [compound 66] yielded an IC50 of 10 to 30 µM. KTKRKRKKQRVKIIFVANM [compound 107] gave an IC50 of less than 10 µM. Compound “226 (Ac-ARRRRQRVAITFK; also: homodimer via Ida linker on side chain of Lys13) [compound 226]” has an IC50 of less than 10 µM. “242 (Ac-RRHRRQHVRIIF; also: dimer via C-terminal Phe to Lys linker) [compound 242]” gave an IC50 of less than 10 µM. Work on “506 (Ac-ARRRRQRVAIYFKGGRGDSP; also: homodimer via Ida linker at Lys13 side chain) [compound 506]” yielded an IC50 of less than 10 µM. With “463 (Ac-ARRARQAVAIYFK(Ida(3)); not fully specified (C-terminus); also: homodimer via Ida linker on Lys side chains, linker at 13 via Ida, other end not in the chain) [compound 463]” the IC50 was less than 10 µM. With KRKKQRVKIIF [compound 83] the IC50 was greater than 30 µM. “240 (Ac-RRHHRQRVRIIF; also: dimer via C-terminal Phe to Lys linker) [compound 240]” gave an IC50 of less than 10 µM. Work on “498 (Ac-PRSRRQAVAIYFK(Ida″); not fully specified (C-terminus); also: homodimer via Ida linker on Lys13 side chain) [compound 498]” yielded an IC50 of less than 10 µM. Work on “309 (Ac-RRRRRQAK(Ida)RIIFV; also: homodimer via Ida linker on Lys8 side chain) [compound 309]” yielded an IC50 of less than 10 µM. “302 (Ac-RRRRRQAVRIAIAFK(Ida)-NH2; also: homodimer via Ida linker on Lys15 side chain) [compound 302]” was tested, and the IC50 was less than 10 µM. Compound RKRKKQRVKIAYEEIF [compound 67] has an IC50 greater than 30 µM. “337 (Ac-RHRHRQHVRIYFK(Ida(3))-NH2; also: homodimer via Lys13 side chain, Ida linker (Ida amino group Boc)) [compound 337]” gave an IC50 of less than 10 µM. “306 (Ac-RRRRRQAVRIK(Ida)FV; also: homodimer via Ida linker on Lys11 side chain) [compound 306]” showed an IC50 of less than 10 µM. With “423 (Ac-ARRRRQRVAIKFV; not fully specified (residue 11); also: homodimer of residues 1-13 via Ida linker on K11 side chain) [compound 423]” the IC50 was less than 10 µM. “206 (Ac-RRRAAQRVRIIF; also: dimer: Phe C-termini joined via Lys linker) [compound 206]” showed an IC50 of less than 10 µM. “270 (Ac-RRRRRQAVAINFK-NH2; not fully specified (residue 13); also: homodimer: Lys13 side chain bound to Ida linker) [compound 270]” showed an IC50 of less than 10 µM. “330 (XRRHRQHVRIYFK; not fully specified; Xaa = Acylated Histidine; The side chain of Lysine at position 13 is covalently bound to an Ida linker forming a homodimer of residues 1 through 13.) [compound 330]” showed an IC50 of less than 10 µM. With RVKIAYEEIFVQNM [compound 44] the IC50 was greater than 30 µM. Work on “321 (XRRRRQHVAIYFK; Xaa = Acylated Histidine; The side chain of Lysine at position 13 is covalently bound to an Ida linker forming a homodimer of residues 1 through 13.) [compound 321]” yielded an IC50 of less than 10 µM. “203 (Ac-RRARAQRVRIIF; also: dimer: C-terminal Phe bound to an amino group of a Lys linker, 2 chains per Lys) [compound 203]” showed an IC50 of less than 10 µM. Work on “327 (XHRRRQHVRIYFK; not fully specified; Xaa = Acylated Histidine; The side chain of Lysine at position 13 is covalently bound to an Ida linker forming a homodimer of residues 1 through 13.) [compound 327]” yielded an IC50 of less than 10 µM. Compound “260 (Ac-ARRR[dR]QRVAIIFK-NH2; not fully specified (residue 13); also: homodimer via Ida linker on Lys13 side chains) [compound 260]” has an IC50 of less than 10 µM. “325 (Ac-RRRHRQHVRIYFK; not fully specified (residue 13, C-terminus); also: homodimer via Ida linker on Lys13 side chain) [compound 325]” showed an IC50 of less than 10 µM. “209 (Ac-RRRRAQAVRIIF; also: dimer: Phe C-termini joined via Lys linker) [compound 209]” gave an IC50 of less than 10 µM. “190 (Ac-RRRRRQRVHIIF; also: dimer: C-terminal Phe bound to an amino group of a Lys linker, 2 chains per Lys) [compound 190]” was tested, and the IC50 was less than 10 µM. With KTKRKRKKIAYEEIFVQNM [compound 58] the IC50 was greater than 30 µM. In the case of “359 (Ac-RRRHHQHVRIYFK(Ida(3))-NH2; also: homodimer via Ida linker on Lys13 side chain, Boc on Ida amine) [compound 359]”, the IC50 is reported as less than 10 µM. KTKRKRKKQRVAAAYEEIFVQNM [compound 50] was tested, and the IC50 was greater than 30 µM. “341 (Ac-RRHRHQRVHIYFK(Ida(3))-NH2; also: homodimer via Lys13 side chain, Ida linker (Ida amino group Boc)) [compound 341]” was tested, and the IC50 was less than 10 µM. “318 (XRRRRQAVAIYFK; Xaa = Acylated Histidine; The side chain of Lysine at position 13 is covalently bound to an Ida linker forming a homodimer of residues 1 through 13.) [compound 318]” was tested, and the IC50 was less than 10 µM. In the case of “135 (KRKRKKQRVKI[Ahx][Ahx]IF; also: dimer: C-terminus of Phe15 of each chain bound to one amino group of a Lysine linker) [compound 135]”, the IC50 is reported as less than 10 µM.
